Reference: the supplement of paper PMC12137928
Counter-ions that a name gives are not always drawn.

Test system: HCT116
Settings: 72 h
Outline: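 HCT116 cells were seeded at 250 per well in 1536-well plates with 5 h allowed for attachment. CellTiter-Glo luminescence was normalized against vehicle (0%) and positive control (-100%) before pattern correction. The IC50 and maximal efficacy figures derive from four-parameter Hill fits.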

Row | IC50 cell viability (ICRF193 0 nM) [µM] | IC50 cell viability (ICRF193 200 nM) [µM] | Compound
1 | > 45.8 | > 45.8 | CCCCc1cc2ccccc2c(OCCN(C)C)n1 [Dimethisoquin hydrochloride]
2 | > 45.8 | > 45.8 | CCC(C(=O)NC(=O)NC(C)=O)c1ccccc1 (configuration not stated) [Acetylpheneturide]
3 | > 45.8 | > 45.8 | C[C@@H](N)C(=O)O [D-Alanine]
4 | > 45.8 | > 45.8 | CCCC(=O)Nc1ccc(OCC(O)CNC(C)C)c(C(C)=O)c1 (configuration not stated) [Acebutolol hydrochloride]
5 | > 45.8 | > 45.8 | COCCCOc1ccnc(C[S+]([O-])c2nc3ccccc3[nH]2)c1C (configuration not stated) [Rabeprazole]
6 | > 45.8 | > 45.8 | CC(=O)OCC(=O)[C@@]1(O)CC[C@H]2[C@@H]3C[C@H](C)C4=CC(=O)C=C[C@]4(C)[C@H]3[C@@H](O)C[C@@]21C [Methylprednisolone acetate]
7 | > 45.8 | > 45.8 | CC[N+](CC)(CC)CCC(O)(c1ccccc1)C1CCCCC1 (configuration not stated) [Tridihexethyl chloride]
8 | > 45.8 | > 45.8 | C[N+](C)(C)CC(O)CC(=O)[O-] (racemic) [DL-Carnitine HCl]
9 | > 45.8 | > 45.8 | CC[C@H]1OC(=O)C[C@@H](O)[C@H](C)[C@@H](O[C@@H]2O[C@H](C)[C@@H](O[C@H]3C[C@@](C)(O)[C@@H](O)[C@H](C)O3)[C@H](N(C)C)[C@H]2O)[C@@H](CC=O)C[C@@H](C)C(=O)/C=C/C(C)=C/[C@@H]1CO[C@@H]1O[C@H](C)[C@@H](O)[C@@H](OC)[C@H]1OC [TYLOSIN TARTRATE]
10 | > 45.8 | > 45.8 | Cn1cc(C(=O)[C@@H]2CCc3[nH]cnc3C2)c2ccccc21 [Ramosetron hydrochloride]
11 | > 45.8 | > 45.8 | COc1ccc(-c2nc3cc(C4=NNC(=O)CC4C)ccc3[nH]2)cc1 (configuration not stated) [Pimobendan]
12 | > 45.8 | > 45.8 | CN1CCN(C(c2ccccc2)c2ccc(Cl)cc2)CC1 (configuration not stated) [Chlorcyclizine]
13 | > 45.8 | > 45.8 | CCN(CC)C(=O)C1CN2CCc3cc(OC)c(OC)cc3C2CC1OC(C)=O (configuration not stated) [Benzquinamide]
14 | > 45.8 | > 45.8 | O=C1CC[C@H](C(=O)N2CCCCC2)N1 [Fasoracetam]
15 | > 45.8 | > 45.8 | CCCCCCCCCCCCOC(=O)CS(=O)(=O)O [SODIUM LAURYL SULFOACETATE]
16 | > 45.8 | > 45.8 | C[C@H](CCC(=O)O)[C@H]1CC[C@H]2[C@@H]3C(=O)C[C@@H]4CC(=O)CC[C@]4(C)[C@H]3CC(=O)[C@]12C [Dehydrocholic acid]
17 | > 45.8 | > 45.8 | C[C@]12CCC(=O)C=C1CC[C@@H]1[C@@H]2[C@@H](O)C[C@@]2(C)[C@H]1CC[C@]2(O)C(=O)CO [Hydrocortisone]
18 | > 45.8 | > 45.8 | Cc1cc(-c2ccc(/N=N/c3c(S(=O)(=O)O)cc4cc(S(=O)(=O)O)cc(N)c4c3O)c(C)c2)ccc1/N=N/c1c(S(=O)(=O)O)cc2cc(S(=O)(=O)O)cc(N)c2c1O [TRYPAN BLUE]
19 | > 45.8 | > 45.8 | CCOC(=O)C1=C(C)NC(C)=C(C(=O)OC)C1c1cccc([N+](=O)[O-])c1 (configuration not stated) [Nitrendipine]
20 | > 45.8 | > 45.8 | Cl.Cl.c1ccc(CNCCNCc2ccccc2)cc1 [N,N'-Dibenzylethane-1,2-diamine dihydrochloride]
21 | > 45.8 | > 45.8 | C=CC1=C(C(=O)O)N2C(=O)[C@@H](NC(=O)/C(=N\OCC(=O)O)c3csc(N)n3)[C@H]2SC1 [Cefixime]
22 | > 45.8 | > 45.8 | Nc1ccc(S(=O)(=O)Nc2cnc3ccccc3n2)cc1 [Sulfaquinoxaline]
23 | > 45.8 | > 45.8 | Nc1ccc(C(=O)NCC(=O)O)cc1 [Aminohippuric acid]
24 | > 45.8 | > 45.8 | CCCN(CCC)CCc1cccc2c1CC(=O)N2 [Ropinirole]
25 | > 45.8 | > 45.8 | CCC(=O)O[C@]1(C(=O)COC)[C@@H](C)C[C@H]2[C@@H]3CCC4=CC(=O)C=C[C@]4(C)[C@@]3(F)[C@@H](O)C[C@@]21C [Amelometasone]
26 | > 45.8 | > 45.8 | O=P(O)(O)OP(=O)(O)O [Pyrophosphoric acid]
27 | > 45.8 | > 45.8 | O=C(O)c1ccccc1S [2-Thiosalicylic acid]
28 | > 45.8 | > 45.8 | O=C(C1CCCCC1)N1CC(=O)N2CCc3ccccc3C2C1 (configuration not stated) [Praziquantel]

Row | IC50 cell viability (ICRF193 0 nM) [µM] | IC50 cell viability (ICRF193 200 nM) [µM] | Compound
29 | > 45.8 | > 45.8 | COc1cc(Cc2cnc(N)nc2N)cc(OC)c1OC [Trimethoprim]
30 | > 45.8 | > 45.8 | Cc1noc(NS(=O)(=O)c2ccc(N)cc2)c1C [Sulfisoxazole]
31 | > 45.8 | > 45.8 | O=C(O)c1nc(=O)[nH]c(=O)[nH]1 [Oteracil]
32 | > 45.8 | > 45.8 | CN(C)C(=O)N[C@H]1CC[C@H](CCN2CCN(c3cccc(Cl)c3Cl)CC2)CC1 [Cariprazine]
33 | > 45.8 | > 45.8 | CCOC(=O)c1ccc(OCCN2C[C@H](O)[C@@H](O)[C@H](O)[C@H]2CO)cc1 [Emiglitate]
34 | > 45.8 | > 45.8 | Cc1nc2n(c(=O)c1CCN1CCC(c3noc4cc(F)ccc34)CC1)CCCC2 [Risperidone]
35 | > 45.8 | > 45.8 | CCCCN1CCCC[C@H]1C(=O)Nc1c(C)cccc1C [Levobupivacaine hydrochloride]
36 | > 45.8 | > 45.8 | CN1CCCN=C1/C=C/c1cccs1 [Pyrantel tartrate]
37 | > 45.8 | > 45.8 | COC(=O)N[C@H](C(=O)N1CC2(CC2)C[C@H]1c1nc(-c2ccc3c(c2)C(F)(F)c2cc(-c4ccc5[nH]c([C@@H]6[C@H]7CC[C@H](C7)N6C(=O)[C@@H](NC(=O)OC)C(C)C)nc5c4)ccc2-3)c[nH]1)C(C)C [Ledipasvir (GS 5885)]
38 | > 45.8 | > 45.8 | COc1ccc2c(c1)c(CC(=O)OC/C=C(\C)CC/C=C(\C)CCC=C(C)C)c(C)n2C(=O)c1ccc(Cl)cc1 [Indomethacin farnesil]
39 | > 45.8 | > 45.8 | Cc1oc(=O)oc1COC(=O)N1CC[C@@H](N2CC/C(=C\C3=C(C(=O)O)N4C(=O)[C@@H](NC(=O)/C(=N/O)c5nsc(N)n5)[C@H]4SC3)C2=O)C1 [CEFTOBIPROLE MEDOCARIL SODIUM]
40 | > 45.8 | > 45.8 | O=C(OCC(COC(=O)c1cccnc1)(COC(=O)c1cccnc1)COC(=O)c1cccnc1)c1cccnc1 [Niceritrol]
41 | > 45.8 | > 45.8 | O=C(O)c1cn(C2CC2)c2cc(N3CCNCC3)c(F)cc2c1=O [Ciprofloxacin]
42 | > 45.8 | > 45.8 | CN(C)CC/C=C1/c2ccccc2COc2ccc(CC(=O)O)cc21 [Olopatadine hydrochloride]
43 | > 45.8 | > 45.8 | CCOc1cc(N)c(Cl)cc1C(=O)NCC1CN(Cc2ccc(F)cc2)CCO1 (configuration not stated) [Mosapride citrate]
44 | > 45.8 | > 45.8 | CCc1cccc2c3c([nH]c12)C(CC)(CC(=O)O)OCC3 (configuration not stated) [Etodolac]
45 | > 45.8 | > 45.8 | Oc1ccc(OCc2ccccc2)cc1 [Monobenzone]
46 | > 45.8 | > 45.8 | CN1CC2c3ccccc3Oc3ccc(Cl)cc3C2C1 (configuration not stated) [Asenapine]
47 | > 45.8 | > 45.8 | Clc1ccccc1CN1CCc2sccc2C1 [Ticlopidine hydrochloride]
48 | > 45.8 | > 45.8 | O=C1O[C@@H]2[C@@H](O)[C@H](O)O[C@@H]2C1O (stereo partly drawn) [D-Glucuronolactone]
49 | > 45.8 | > 45.8 | Nc1nc(/C(=C/CC(=O)O)C(=O)N[C@@H]2C(=O)N3C(C(=O)O)=CCS[C@H]23)cs1 [CEFTIBUTEN]
50 | > 45.8 | > 45.8 | COc1c(O)cc2c(c1O)[C@@H]1O[C@H](CO)[C@@H](O)[C@H](O)[C@H]1OC2=O [Bergenin monohydrate]
51 | > 45.8 | > 45.8 | CC(C)(O/N=C(\C(=O)N[C@@H]1C(=O)N2C(C(=O)[O-])=C(C[n+]3ccccc3)CS[C@H]12)c1csc(N)n1)C(=O)O [Ceftazidime]
52 | > 45.8 | > 45.8 | OC(CCN1CCCCC1)(c1ccccc1)c1ccccc1 [Pridinol]
53 | > 45.8 | > 45.8 | OCc1ccccc1 [Benzyl alcohol]
54 | > 45.8 | > 45.8 | Cn1ccnc1S [Methimazole]
55 | > 45.8 | > 45.8 | CC=CC(=O)N(CC)c1ccccc1C [Crotamiton]

Row | Compound | IC50 cell viability (ICRF193 0 nM) [µM] | IC50 cell viability (ICRF193 200 nM) [µM]
56 | FC(F)OC(F)(F)C(F)Cl (configuration not stated) [Enflurane] | > 45.8 | > 45.8
57 | Cc1cccc(Cc2c[nH]cn2)c1C [Detomidine hydrochloride] | > 45.8 | > 45.8
58 | CCC(=O)O[C@H]1CC[C@H]2[C@@H]3CC[C@H]4CC(=O)[C@H](C)C[C@]4(C)[C@H]3CC[C@]12C [Drostanolone propionate] | > 45.8 | > 45.8
59 | O=C([O-])c1ccccc1-c1c2cc(Br)c(=O)cc-2oc2[c]([Hg+])c([O-])c(Br)cc12.[Na+].[Na+].[OH-] [Merbromin] | > 45.8 | > 45.8
60 | CCOc1ccc2c3c1O[C@H]1[C@@H](O)C=C[C@H]4[C@@H](C2)N(C)CC[C@@]341 [Ethylmorphine] | > 45.8 | > 45.8
61 | CNC(C)C(O)c1ccccc1 (configuration not stated) [RACEPHEDRINE HYDROCHLORIDE] | > 45.8 | > 45.8
